Data: PMC7782793, “Hydroxamic acid-modified peptide microarrays for profiling isozyme-selective interactions and inhibition of histone deacetylases” (Nature Communications, 2021)
Where “and” joins values, the source holds several entries; their conditions need not be identical. Equal entries are not always repeated. Marks after values point to notes of the source that are not given here. Non-standard residues stand in square brackets, D forms with d. Residues, ends and D or L forms follow the SMILES beside them. *: point of attachment. Asu = N[C@@H](CCCCCC(=O)O)C(=O)O; NHOH = ON*

Assays:
HDAC1 [1] = biological target: T1, HDAC1 (Homo sapiens, UniProt Q13547); assay: Recombinant HDAC µSPOT microarray binding assay;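 also: slides with spotted peptides incubated with six HDAC concentrations in HEPES buffer pH 7.4, spot intensities fitted by four-parameter logistic, EC50 as enzyme concentration giving half-maximal binding signal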
T1 construct: HDAC1 (full length, C-terminal His tag, C-terminal FLAG tag, BPS Bioscience, cat. #: 50051); FLAG (C); purchased BPS Bioscience 50051
T1 sequence (Q13547 whole entry): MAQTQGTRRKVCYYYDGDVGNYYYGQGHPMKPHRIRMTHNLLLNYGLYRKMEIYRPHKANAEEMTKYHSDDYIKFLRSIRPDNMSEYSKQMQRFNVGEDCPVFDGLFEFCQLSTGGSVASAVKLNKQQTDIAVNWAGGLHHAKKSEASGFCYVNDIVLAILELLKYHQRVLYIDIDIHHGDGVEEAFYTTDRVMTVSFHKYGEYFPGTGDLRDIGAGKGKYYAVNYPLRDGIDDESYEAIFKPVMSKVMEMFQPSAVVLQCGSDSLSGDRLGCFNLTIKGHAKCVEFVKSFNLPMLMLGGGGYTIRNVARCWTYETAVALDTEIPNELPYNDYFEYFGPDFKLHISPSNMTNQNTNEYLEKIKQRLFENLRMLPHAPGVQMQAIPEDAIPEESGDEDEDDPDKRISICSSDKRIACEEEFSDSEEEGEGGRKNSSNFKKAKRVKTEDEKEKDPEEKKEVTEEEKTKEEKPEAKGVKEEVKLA

HDAC3/NCoR2 [2] = biological target: T2, HDAC3/NCoR2 (Homo sapiens, UniProt O15379); assay: Recombinant HDAC µSPOT microarray binding assay;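 also: peptide spots on cellulose slides incubated with rising HDAC enzyme concentrations, imaged together, four-parameter logistic fit, EC50 is enzyme concentration giving half-maximal binding signal, two experiments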
T2 construct: HDAC3/NCoR2 (full length, C-terminal His tag, NCoR2 N-terminal GST tag); purchased BPS Bioscience 50003
T2 sequence (O15379 whole entry): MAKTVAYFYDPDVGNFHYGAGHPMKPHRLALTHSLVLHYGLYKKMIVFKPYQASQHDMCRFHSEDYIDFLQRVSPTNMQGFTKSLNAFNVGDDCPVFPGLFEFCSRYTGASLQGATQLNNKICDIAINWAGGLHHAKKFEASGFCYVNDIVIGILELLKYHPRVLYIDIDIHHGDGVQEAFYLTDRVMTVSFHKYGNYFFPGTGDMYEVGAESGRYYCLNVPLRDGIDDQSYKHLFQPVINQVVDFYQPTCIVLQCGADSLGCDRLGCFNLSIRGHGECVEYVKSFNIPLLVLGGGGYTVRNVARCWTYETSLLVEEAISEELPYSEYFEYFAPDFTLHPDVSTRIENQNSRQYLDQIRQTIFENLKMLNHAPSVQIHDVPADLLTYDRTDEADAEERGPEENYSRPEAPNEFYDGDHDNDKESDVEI
T2 sequence (Q9Y618 389-480 partner limits assumed): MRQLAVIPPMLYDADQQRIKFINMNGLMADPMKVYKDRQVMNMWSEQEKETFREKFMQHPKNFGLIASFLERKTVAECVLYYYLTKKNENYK
Procedure: Experiments were performed twice, data were obtained with Array Analyze software (Active Motif), and data analysis and representation were performed with the GraphPad Prism 7 software. Outliers were curated manually and data were fitted to nonlinear regression [log(agonist) vs. response—variable slope (four parameters)]. […] Non-sigmoidal curves were denoted as not determined (N.D.) The pEC50 values were determined as the concentration of HDAC enzyme required for half-maximal binding signal.

HDAC1 [3] = biological target: T1, HDAC1; assay: HDAC inhibition assay (fluorogenic, Ac-Leu-Gly-Lys(Ac)-AMC); type: biochemical; details: for HDAC1 dose-response data (relative enzyme activity), Fig. 6 + S. Fig. 10: duplicate columns
HDAC2 = biological target: T3, HDAC2 (Homo sapiens, UniProt Q92769); assay: as above; type: biochemical; details: for HDAC2 dose-response data (relative enzyme activity), Fig. 6 + S. Fig. 10: duplicate columns
T3 construct: HDAC2 (full length, C-terminal His tag, BPS Bioscience, cat. #: 50002); purchased BPS Bioscience 50002
T3 sequence (Q92769 whole entry): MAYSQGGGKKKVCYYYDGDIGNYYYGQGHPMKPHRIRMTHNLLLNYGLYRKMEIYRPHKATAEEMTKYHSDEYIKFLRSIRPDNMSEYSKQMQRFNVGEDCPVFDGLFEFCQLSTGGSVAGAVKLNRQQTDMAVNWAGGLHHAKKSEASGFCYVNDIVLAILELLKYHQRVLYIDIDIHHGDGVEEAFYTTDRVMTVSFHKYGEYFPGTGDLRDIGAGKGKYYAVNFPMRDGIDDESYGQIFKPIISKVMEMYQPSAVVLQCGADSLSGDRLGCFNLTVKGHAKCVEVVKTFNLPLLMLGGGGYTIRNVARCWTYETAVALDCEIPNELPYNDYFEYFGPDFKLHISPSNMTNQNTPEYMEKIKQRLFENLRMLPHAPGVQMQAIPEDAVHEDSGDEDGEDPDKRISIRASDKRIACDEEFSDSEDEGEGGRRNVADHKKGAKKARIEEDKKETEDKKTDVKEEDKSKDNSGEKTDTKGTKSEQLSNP

HDAC3/NCoR2 [4] = biological target: T2, HDAC3/NCoR2; assay: as above; type: biochemical; details: for HDAC3 dose-response data (relative enzyme activity), Fig. 6 + S. Fig. 10: duplicate columns
HDAC8 = biological target: T4, HDAC8 (Homo sapiens, UniProt Q9BY41); assay: HDAC inhibition assay (fluorogenic, Ac-Leu-Gly-Lys(Tfa)-AMC); type: biochemical; details: for HDAC8 dose-response data (relative enzyme activity, replicate values), Fig. 6 + S. Fig. 10: two replicate columns per inhibitor; for HDAC8 dose-response data (relative enzyme activity), Fig. 6 + S. Fig. 10: duplicate columns
T4 construct: HDAC8 (full length, C-terminal His tag, BPS Bioscience, cat. #: 50008); purchased BPS Bioscience 50008
T4 sequence (Q9BY41 1-377): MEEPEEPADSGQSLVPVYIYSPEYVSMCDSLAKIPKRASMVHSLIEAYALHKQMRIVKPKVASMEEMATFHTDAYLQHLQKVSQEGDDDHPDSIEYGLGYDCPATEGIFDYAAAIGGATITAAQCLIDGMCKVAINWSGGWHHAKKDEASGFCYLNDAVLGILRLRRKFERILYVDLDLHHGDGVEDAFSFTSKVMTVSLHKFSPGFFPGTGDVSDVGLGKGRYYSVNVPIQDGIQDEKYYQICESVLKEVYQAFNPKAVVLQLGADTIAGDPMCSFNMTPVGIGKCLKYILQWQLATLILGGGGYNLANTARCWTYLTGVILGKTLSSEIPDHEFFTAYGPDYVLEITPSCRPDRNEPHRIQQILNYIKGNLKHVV

HDAC6 = biological target: T5, HDAC6 (Homo sapiens, UniProt Q9UBN7); assay: HDAC inhibition assay (fluorogenic, Ac-Leu-Gly-Lys(Ac)-AMC); type: biochemical; details: HDAC6, replicates
T5 construct: HDAC6 (full length, BPS Bioscience, cat. #: 50056); purchased BPS Bioscience 50056
T5 sequence (Q9UBN7 1-1215): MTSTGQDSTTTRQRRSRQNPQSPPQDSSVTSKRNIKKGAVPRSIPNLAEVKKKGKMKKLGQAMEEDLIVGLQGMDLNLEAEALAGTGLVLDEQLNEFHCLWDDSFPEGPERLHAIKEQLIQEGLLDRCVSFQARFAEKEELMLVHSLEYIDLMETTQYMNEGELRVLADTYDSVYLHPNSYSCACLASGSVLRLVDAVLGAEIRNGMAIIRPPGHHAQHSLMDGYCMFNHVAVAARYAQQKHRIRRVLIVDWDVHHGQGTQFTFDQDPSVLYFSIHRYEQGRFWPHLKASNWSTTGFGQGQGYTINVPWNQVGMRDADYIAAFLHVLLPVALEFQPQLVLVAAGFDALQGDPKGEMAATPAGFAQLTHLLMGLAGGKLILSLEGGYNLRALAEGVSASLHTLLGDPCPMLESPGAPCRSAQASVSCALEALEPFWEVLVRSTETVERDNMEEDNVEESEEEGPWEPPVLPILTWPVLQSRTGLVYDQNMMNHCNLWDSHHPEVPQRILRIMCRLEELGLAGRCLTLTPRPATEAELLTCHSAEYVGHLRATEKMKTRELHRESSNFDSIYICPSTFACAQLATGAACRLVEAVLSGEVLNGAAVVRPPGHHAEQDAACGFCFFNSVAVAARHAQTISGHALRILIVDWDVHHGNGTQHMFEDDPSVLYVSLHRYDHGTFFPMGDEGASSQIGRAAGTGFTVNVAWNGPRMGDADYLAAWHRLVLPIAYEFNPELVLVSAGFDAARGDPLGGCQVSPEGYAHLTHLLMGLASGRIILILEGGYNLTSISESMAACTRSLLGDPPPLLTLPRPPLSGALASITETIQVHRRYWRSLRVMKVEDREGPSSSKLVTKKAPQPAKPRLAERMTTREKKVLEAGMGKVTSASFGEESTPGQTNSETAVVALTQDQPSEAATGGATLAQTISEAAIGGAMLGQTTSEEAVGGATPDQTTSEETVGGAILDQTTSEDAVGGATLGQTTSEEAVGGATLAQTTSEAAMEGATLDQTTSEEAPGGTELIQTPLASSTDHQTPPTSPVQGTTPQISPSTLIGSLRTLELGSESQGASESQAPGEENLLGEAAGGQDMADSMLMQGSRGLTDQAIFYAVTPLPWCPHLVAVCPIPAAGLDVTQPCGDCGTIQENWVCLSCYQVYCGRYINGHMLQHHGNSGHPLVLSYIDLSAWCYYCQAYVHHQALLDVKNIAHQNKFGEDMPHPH

[5] = log[inhibitor(M)] -10,5850266520292*, whole line marked with asterisks

CC(=O)N[C@@H](C)C(=O)N[C@@H](CCCNC(=N)N)C(=O)N[C@@H](CCCCN)C(=O)N[C@@H](CO)C(=O)N[C@H](C(=O)NCC(=O)NCC(=O)N[C@@H](CCCCN)C(=O)N[C@@H](C)C(=O)N1CCC[C@H]1C(=O)N[C@@H](CCCNC(=N)N)C(=O)N[C@@H](CCCCCC(=O)NO)C(=O)N[C@@H](CCC(N)=O)C(=O)N[C@@H](CC(C)C)C(=O)N[C@@H](C)C(=O)N[C@H](C(=O)N[C@@H](Cc1c[nH]c2ccccc12)C(N)=O)[C@@H](C)O)[C@@H](C)O [13a] (Ac-ARKSTGGKAPR[Asu](NHOH)QLATW-NH2)
EC50 (HDAC1 [1]): > 25.1 nM
EC50 (HDAC3/NCoR2 [2]): 4.17 nM
Ki (HDAC1 [3]): 17.9 ± 0.4 nM
HDAC1 dose-response data (relative enzyme activity), Fig. 6 + S. Fig. 10 (HDAC1 [3]; log[inhibitor(M)] -5): 5.502 and 6.317
HDAC1 dose-response data (relative enzyme activity), Fig. 6 + S. Fig. 10 (HDAC1 [3]; log[inhibitor(M)] -5.69897): 16.4811 and 18.8712
HDAC1 dose-response data (relative enzyme activity), Fig. 6 + S. Fig. 10 (HDAC1 [3]; log[inhibitor(M)] -6.39794): 32.4053 and 35.9654
HDAC1 dose-response data (relative enzyme activity), Fig. 6 + S. Fig. 10 (HDAC1 [3]; log[inhibitor(M)] -7.09691): 44.2666 and 47.9606
HDAC1 dose-response data (relative enzyme activity), Fig. 6 + S. Fig. 10 (HDAC1 [3]; log[inhibitor(M)] -7.79588): 60.5299 and 62.3252
HDAC1 dose-response data (relative enzyme activity), Fig. 6 + S. Fig. 10 (HDAC1 [3]; log[inhibitor(M)] -8.49485): 80.9321 and 81.9464
HDAC1 dose-response data (relative enzyme activity), Fig. 6 + S. Fig. 10 (HDAC1 [3]; log[inhibitor(M)] -9.19382): 95.5469 and 95.3965
HDAC1 dose-response data (relative enzyme activity), Fig. 6 + S. Fig. 10 (HDAC1 [3]; log[inhibitor(M)] -9.89279): 98.1308 and 82.1941
HDAC1 dose-response data (relative enzyme activity), Fig. 6 + S. Fig. 10 (HDAC1 [3]; [5]): 98,3704548* and 94,2568861*
HDAC2 dose-response data (relative enzyme activity), Fig. 6 + S. Fig. 10 (HDAC2; log[inhibitor(M)] -5): 9.3053 and 9.139
HDAC2 dose-response data (relative enzyme activity), Fig. 6 + S. Fig. 10 (HDAC2; log[inhibitor(M)] -5.69897): 27.8438 and 26.8455
HDAC2 dose-response data (relative enzyme activity), Fig. 6 + S. Fig. 10 (HDAC2; log[inhibitor(M)] -7.79588): 88.6532 and 82.3131
HDAC2 dose-response data (relative enzyme activity), Fig. 6 + S. Fig. 10 (HDAC2; [5]): 104,855804* and 98,2337504*
Ki (HDAC2; resynthesized peptide in solution, Cheng-Prusoff, n = 2): 60 ± 1 nM
Ki (HDAC3/NCoR2 [4]): 2.14 ± 0.02 nM
HDAC3 dose-response data (relative enzyme activity), Fig. 6 + S. Fig. 10 (HDAC3/NCoR2 [4]; log[inhibitor(M)] -4.30103): 0.9488 and 1.386
HDAC3 dose-response data (relative enzyme activity), Fig. 6 + S. Fig. 10 (HDAC3/NCoR2 [4]; log[inhibitor(M)] -5): 3.154 and 2.6883
HDAC3 dose-response data (relative enzyme activity), Fig. 6 + S. Fig. 10 (HDAC3/NCoR2 [4]; log[inhibitor(M)] -5.69897): 8.657 and 8.271
HDAC3 dose-response data (relative enzyme activity), Fig. 6 + S. Fig. 10 (HDAC3/NCoR2 [4]; log[inhibitor(M)] -6.39794): 15.6479 and 15.4413
HDAC3 dose-response data (relative enzyme activity), Fig. 6 + S. Fig. 10 (HDAC3/NCoR2 [4]; log[inhibitor(M)] -7.09691): 23.7196 and 23.3659
HDAC3 dose-response data (relative enzyme activity), Fig. 6 + S. Fig. 10 (HDAC3/NCoR2 [4]; log[inhibitor(M)] -7.79588): 41.0048 and 43.3286
HDAC3 dose-response data (relative enzyme activity), Fig. 6 + S. Fig. 10 (HDAC3/NCoR2 [4]; log[inhibitor(M)] -8.49485): 70.4254 and 74.0708
HDAC3 dose-response data (relative enzyme activity), Fig. 6 + S. Fig. 10 (HDAC3/NCoR2 [4]; log[inhibitor(M)] -9.19382): 90.1455 and 92.6434
HDAC3 dose-response data (relative enzyme activity), Fig. 6 + S. Fig. 10 (HDAC3/NCoR2 [4]; log[inhibitor(M)] -9.89279): 95.7935 and 97.884
HDAC3 dose-response data (relative enzyme activity), Fig. 6 + S. Fig. 10 (HDAC3/NCoR2 [4]; [5]): 98,4914638* and 97,1472426*
selectivity for HDAC3 vs. HDACs 1 and 2 (HDAC3/NCoR2 [4]; resynthesized peptides, from Ki): > 8 fold
Ki (HDAC8): 5.1 ± 0.03 nM
HDAC8 dose-response data (relative enzyme activity, replicate values), Fig. 6 + S. Fig. 10 (HDAC8; Inhibitor conc [M] -8.49485 (log)): 71.9184 and 69.3811
HDAC8 dose-response data (relative enzyme activity, replicate values), Fig. 6 + S. Fig. 10 (HDAC8; Inhibitor conc [M] -9.19382 (log)): 90.9342 and 89.4061
HDAC8 dose-response data (relative enzyme activity, replicate values), Fig. 6 + S. Fig. 10 (HDAC8; Inhibitor conc [M] given as -7.09691 (log)): 21.0963 and 19.8616
HDAC8 dose-response data (relative enzyme activity, replicate values), Fig. 6 + S. Fig. 10 (HDAC8; Inhibitor conc [M] given as -7.79588 (log)): 40.3806 and 38.3863
HDAC8 dose-response data (relative enzyme activity, replicate values), Fig. 6 + S. Fig. 10 (HDAC8; Inhibitor conc [M] given as -9.89279 (log)): 99.1075 and 97.7
HDAC8 dose-response data (relative enzyme activity, replicate values), Fig. 6 + S. Fig. 10 (HDAC8; Inhibitor conc [M] given as -10.585 (log)): 102.311 and 100.47
HDAC8 dose-response data (relative enzyme activity), Fig. 6 + S. Fig. 10 (HDAC8; Inhibitor conc [M] -4.30103): 1.362 and 1.423
HDAC8 dose-response data (relative enzyme activity), Fig. 6 + S. Fig. 10 (HDAC8; Inhibitor conc [M] -5): 4.393 and 4.0005
HDAC8 dose-response data (relative enzyme activity), Fig. 6 + S. Fig. 10 (HDAC8; Inhibitor conc [M] -5.69897): 9.7232 and 9.03
HDAC8 dose-response data (relative enzyme activity), Fig. 6 + S. Fig. 10 (HDAC8; Inhibitor conc [M] -6.39794): 13.9289 and 13.185
residual enzymatic activity relative to control wells (HDAC6; log[inhibitor(M)] -4.30103): -1.734 and 1.049
residual enzymatic activity relative to control wells (HDAC6; log[inhibitor(M)] -5): -1.228 and 1.2154
residual enzymatic activity relative to control wells (HDAC6; log[inhibitor(M)] -5.69897): 0.01806 and 2.993
residual enzymatic activity relative to control wells (HDAC6; log[inhibitor(M)] -6.39794): 4.479 and 8.186
residual enzymatic activity relative to control wells (HDAC6; log[inhibitor(M)] -7.09691): 18.6761 and 22.7019
residual enzymatic activity relative to control wells (HDAC6; log[inhibitor(M)] -7.79588): 46.5457 and 51.1177
residual enzymatic activity relative to control wells (HDAC6; log[inhibitor(M)] -8.49485): 65.89 and 75.8407
residual enzymatic activity relative to control wells (HDAC6; log[inhibitor(M)] -9.19382): 72.6813 and 83.6344
residual enzymatic activity relative to control wells (HDAC6; log[inhibitor(M)] -9.89279): 83.1572 and 99.4226
residual enzymatic activity relative to control wells (HDAC6; log[inhibitor(M)] -10.585): 85.7762 and 94.8721
